Like-named read-outs stand apart in the source and are kept apart here.
How the values were obtained:
[1] = tested on: surrogate whole blood control; test: Clotting time of surrogate whole blood control on PoC Coagulometer, benzamidine in activation solution (Example 4); set-up: species or system horse, sheep; conditions: for Clotting time: 22 mM CaCl2
Method: (§1) Plasma was prepared by mixing sheep plasma and horse plasma at a mixing ratio of 1:9. Sheep fibrinogen solution (45.72 mg/mL in 20 mM sodium citrate-HCl, pH 7.4) was diluted to 40 mg/mL with saline. Plasma base was further prepared by mixing 77% (w/v) plasma and 23% (w/v) sheep fibrinogen solution (40 mg/mL). Whole blood control was prepared by resuspending 35% (w/v) 3% glutaraldehyde-fixed horse red blood cells in 65% (w/v) plasma base, with addition of rabbit brain cephalin to a final concentration of 0.144 mg/mL. The whole blood control was then freeze-thawed once and freeze-dried in glass vials. To test the effect of benzamidine concentration in activation solution on clotting time, the freeze-dried surrogate whole blood control was reconstituted in a diluent solution to half of its original volume, incubated at room temperature for 6 minutes, and mixed by swirling the glass vial gently for an additional 1 minute. The control was then activated by addition of an activation solution containing 22 mM CaCl2) and varying concentrations of benzamidine at the volume ratio of 1:1, followed by six times of rapid inversion. The samples were tested on Perosphere Technologies' PoC Coagulometers immediately after activation.

[2] = tested on: surrogate whole blood control; test: Clotting time of surrogate whole blood control on PoC Coagulometer, benzamidine in lyophilizate (Example 2); set-up: species or system horse, sheep; conditions: for Clotting time: activated with 22 mM calcium chloride
Method: Plasma was prepared by mixing sheep plasma and horse plasma at a mixing ratio of 1:9. Sheep fibrinogen solution (45.72 mg/mL in 20 mM sodium citrate-HCl, pH 7.4) was diluted to 40 mg/mL with saline. Plasma base was further prepared by mixing 77% (w/v) plasma and 23% (w/v) sheep fibrinogen solution (40 mg/mL). Whole blood control was prepared by resuspending 35% (w/v) 2% glutaraldehyde-fixed horse red blood cells in 65% (w/v) plasma base, with addition of rabbit brain cephalin to a final concentration of 0.144 mg/mL. Benzamidine of varying concentrations were added to the preparation. The whole blood control was then freeze-dried in glass vials. To test the effect of benzamidine in lyophilizate on clotting time, the freeze-dried surrogate whole blood control was reconstituted in a diluent solution to half of its original volume, incubated at room temperature for 6 minutes, and mixed by swirling the glass vial gently for an additional 1 minute. The control was then activated by addition of 22 mM calcium chloride at the volume ratio of 1:1, followed by six times of rapid inversion. The samples were tested on Perosphere Technologies' PoC Coagulometers immediately after activation.

[3] = tested on: surrogate whole blood control
Method: as §1, with “mg/mL by” for “mg/mL with”, “(w/v) 2%” for “(w/v) 3%”, “of calcium chloride” for “of benzamidine”, “of calcium chloride” for “of an activation”, “solution of” for “solution containing 22 mM CaCl2) and”, “concentrations” for “concentrations of benzamidine”

Structure (SMILES)	Response of clotting time to benzamidine concentration in activation solution ([1]; 0-6.6 mM in activation solution, FIG. 2)	Clotting time ([1]; benzamidine concentration in activation solution 1.1 mM) [s]	Clotting time ([1]; benzamidine concentration in activation solution 2.2 mM) [s]	Clotting time ([1]; benzamidine concentration in activation solution 4.4 mM) [s]	Clotting time ([1]; benzamidine concentration in activation solution 6.6 mM) [s]	Response of clotting time to benzamidine concentration in lyophilizate (dose-response curve) ([2]; 0-2.2 mM in lyophilizate, FIG. 1)	Clotting time ([2]; benzamidine concentration in lyophilizate 1.1 mM) [s]	Clotting time ([2]; benzamidine concentration in lyophilizate 2.2 mM) [s]	Clotting time ([3]; CaCl2 concentration in activation solution 14 mM) [s]	Clotting time ([3]; CaCl2 concentration in activation solution 22 mM) [s]	Clotting time ([3]; CaCl2 concentration in activation solution 30 mM) [s]	Clotting time ([3]; CaCl2 concentration in activation solution 40 mM) [s]
N=C(N)c1ccccc1 [Benzamidine, benzamidine]	linear response	206.00	249.00	357.67	422.50	linear	339.33	495.00				
[Ca+2].[Cl-].[Cl-] [CaCl2, calcium chloride]									199.00	154.00	166.00	203.33

From patent US20260169012A1, “WHOLE BLOOD CONTROL SAMPLE SYSTEMS AND METHOD OF PREPARING AND USING THE SAME” (Perosphere Technologies Inc., priority 2020, published 2026)
